Reference: US8008000B2, “Viral variants detection and application” (priority 2003, dated 2011)
“Also recorded” adds a separate entry of the source. Counter-ions that a name gives are not always drawn.

Experiments:
[1] = test system: HBV; experiment: Response of Patient E (chronic HBV infection) to treatment; assay type: in vivo, Hepatitis B virus; details: previously treated with lamivudine
Description: Reference herein to “decreased” or “reduced” in relation to sensitivity to ADV and/or LMV and/or FTC and/or TFV includes and encompasses a complete or substantial resistance to the nucleoside or nucleotide analog or other anti-HBV agents as well as partial resistance and includes a replication rate or replication efficiency which is more than a wild-type in the presence of a nucleoside or nucleotide analog or other anti-HBV agents. In one aspects this is conveniently measured by an increase in viral load during treatment, or alternatively, there is no substantial decrease in HBV DNA viral load from pretreatment HBV DNA levels during treatment (i.e., non-response to treatment).

[2] = test system: HBV; details: 30 mg daily dose, over 12 weeks, phase II studies; cited from earlier work
[3] = test system: HBV; experiment: HBV viral load in Patient A during ADV therapy; assay type: in vivo, Hepatitis B virus; details: Patient A on ADV treatment
Description: Patient A: During ADV treatment, unique HBV mutations were detected by sequencing (Table 4). This includes the unique mutation at rtT38K, and rtA181V. A number of other changes were also detected in the polymerase rtR55H and in the overlapping envelope gene (Table 4, FIGS. 4, 5 and 6). The changes in the HBsAg include sQ30K, sE44G, sA47T, sI126T, sA159V and sL173F. These unique changes were compared to reference sequences from each of the seven genotypes A-G as well as a consensus sequence from pretreatment samples to determine unique changes
Hepatitis B surface antigen (HBsAg), hepatitis B e antigen (HBeAg), anti-HBe and hepatitis B core antigen (HBcAg) specific IgG and IgM were measured using commercially available immunoassays (Abbott Laboratories, North Chicago, Ill., USA). Hepatitis B viral DNA levels were measured using a capture hybridization assay according to the manufacturer's directions (Digene Hybrid Capture II, Digene Diagnostics Inc., Beltsville, Md.). The manufacturers stated cut-off for detecting HBV viremia in clinical specimens was 0.7×10^6 copies/ml or 2.5 pg/ml, [Hendricks et al., Am J Clin Pathol 104: 537-46, 1995]. HBV DNA levels can also be quantitated using other commercial kits such as Cobas amplification HBV monitor kit (Roche).

Structure (SMILES) | response to treatment [1] | mean decrease in viremia [2] | HBV viral load ([3]; 8 Jul. 2003) | HBV viral load ([3]; 14 Jan. 2003) | HBV viral load ([3]; 22 Oct. 2002)
CC(C)(C)C(=O)OCOP(=O)(COCCn1cnc2c(N)ncnc21)OCOC(=O)C(C)(C)C [ADV, adefovir dipivoxil] | did not respond; also recorded: nonresponder | 4 log10 | 7.92E+07 | 1.21E+09 | 8.77E+06
CC(C)OC(=O)OCOP(=O)(CO[C@H](C)Cn1cnc2c(N)ncnc21)OCOC(=O)OC(C)C [TFV, tenofovir disoproxil fumarate] | responded |  |  |  | 
